What was measured:
[1] = target: 5-hydroxytryptamine receptor 2B (Homo sapiens) (UniProt P41595); settings: Compound concentration 10.0 uM
[2] = target: Alpha-1A adrenergic receptor (Homo sapiens) (UniProt P35348); settings: Compound concentration 10.0 uM
[3] = target: Sigma intracellular receptor 2 (Homo sapiens) (UniProt Q5BJF2); settings: Compound concentration 10.0 uM
[4] = target: Beta-3 adrenergic receptor (Homo sapiens) (UniProt P13945); settings: Compound concentration 10.0 uM
[5] = target: 5-hydroxytryptamine receptor 1D (Homo sapiens) (UniProt P28221); settings: Compound concentration 10.0 uM
[6] = target: Beta-1 adrenergic receptor (Homo sapiens) (UniProt P08588); settings: Compound concentration 10.0 uM
[7] = target: Alpha-2C adrenergic receptor (Homo sapiens) (UniProt P18825); settings: Compound concentration 10.0 uM
[8] = target: Mu-type opioid receptor (Homo sapiens) (UniProt P35372); settings: Compound concentration 10.0 uM
D(1B) dopamine receptor [9] = target: T1, D(1B) dopamine receptor (Homo sapiens, UniProt P21918); test: GPCRScan assay: inhibition of D5; set-up: radioligand conc. used [nm] 2.0 – 3.0, parental cells HEKT
[10] = target: Sigma non-opioid intracellular receptor 1 (Homo sapiens) (UniProt Q99720); settings: Compound concentration 10.0 uM
[11] = target: Monoacylglycerol lipase (Homo sapiens); test: Fluorometric Assay (Inhibition of 4MU-B cleavage)
[12] = target: Alpha-1D adrenergic receptor (Homo sapiens) (UniProt P25100); settings: Compound concentration 10.0 uM
[13] = target: Beta-2 adrenergic receptor (Homo sapiens) (UniProt P07550); settings: Compound concentration 10.0 uM
[14] = target: Histamine H4 receptor (Homo sapiens) (UniProt Q9H3N8); settings: Compound concentration 10.0 uM
[15] = target: Kappa-type opioid receptor (Homo sapiens) (UniProt P41145); settings: Compound concentration 10.0 uM
[16] = target: 5-hydroxytryptamine receptor 5A (Homo sapiens) (UniProt P47898); settings: Compound concentration 10.0 uM
[17] = target: Alpha-1B adrenergic receptor (Homo sapiens) (UniProt P35368); settings: Compound concentration 10.0 uM
[18] = target: GABA-A receptor; anion channel (Rattus norvegicus) (UniProt O09028+P15431+P18506+P18508+P19969+P20236+P23574+P23576+P28471+P28473+P30191+P62813+P63079+P63138+Q91ZM7+Q9ES14); settings: Compound concentration 10.0 uM
[19] = target: 5-hydroxytryptamine receptor 6 (Homo sapiens) (UniProt P50406); settings: Compound concentration 10.0 uM
[20] = target: Histamine H3 receptor (Homo sapiens) (UniProt Q9Y5N1); settings: Compound concentration 10.0 uM
[21] = target: D(2) dopamine receptor (Homo sapiens) (UniProt P14416); settings: Compound concentration 10.0 uM
[22] = target: Histamine H2 receptor (Homo sapiens) (UniProt P25021); settings: Compound concentration 10.0 uM
[23] = target: 5-hydroxytryptamine receptor 1A (Homo sapiens) (UniProt P08908); settings: Compound concentration 10.0 uM
Rattus norvegicus = organism: Rattus norvegicus; settings: Compound concentration 10.0 uM
[24] = target: 5-hydroxytryptamine receptor 2C (Homo sapiens) (UniProt P28335); settings: Compound concentration 10.0 uM
[25] = target: D(3) dopamine receptor (Homo sapiens) (UniProt P35462); settings: Compound concentration 10.0 uM
[26] = target: Alpha-2A adrenergic receptor (Homo sapiens) (UniProt P08913); settings: Compound concentration 10.0 uM
[27] = target: 5-hydroxytryptamine receptor 3A (Homo sapiens) (UniProt P46098); settings: Compound concentration 10.0 uM
[28] = target: Alpha-2B adrenergic receptor (Homo sapiens) (UniProt P18089); settings: Compound concentration 10.0 uM
[29] = target: Muscarinic acetylcholine receptor M5 (Homo sapiens) (UniProt P08912); settings: Compound concentration 10.0 uM
[30] = target: Histamine H1 receptor (Homo sapiens) (UniProt P35367); settings: Compound concentration 10.0 uM
[31] = target: Sodium-dependent serotonin transporter (Homo sapiens) (UniProt P31645); settings: Compound concentration 10.0 uM
[32] = target: 5-hydroxytryptamine receptor 1B (Homo sapiens) (UniProt P28222); settings: Compound concentration 10.0 uM
[33] = target: D(4) dopamine receptor (Homo sapiens) (UniProt P21917); settings: Compound concentration 10.0 uM
[34] = target: 5-hydroxytryptamine receptor 2A (Homo sapiens) (UniProt P28223); settings: Compound concentration 10.0 uM
[35] = target: Muscarinic acetylcholine receptor M2 (Homo sapiens) (UniProt P08172); settings: Compound concentration 10.0 uM
[36] = target: Delta-type opioid receptor (Homo sapiens) (UniProt P41143); settings: Compound concentration 10.0 uM
[37] = target: Sodium-dependent dopamine transporter (Homo sapiens) (UniProt Q01959); settings: Compound concentration 10.0 uM
[38] = target: 5-hydroxytryptamine receptor 7 (Homo sapiens) (UniProt P34969); settings: Compound concentration 10.0 uM
[39] = target: Sodium-dependent noradrenaline transporter (Homo sapiens) (UniProt P23975); settings: Compound concentration 10.0 uM
[40] = target: T2, Muscarinic acetylcholine receptor M3 (Homo sapiens, UniProt P20309); settings: Compound concentration 10.0 uM
[41] = target: T2, Muscarinic acetylcholine receptor M3; test: GPCRScan assay: inhibition of M3; set-up: radioligand conc. used [nm] 0.3 – 1.0, parental cells stable CHO
[42] = target: Coagulation factor X (Homo sapiens) (UniProt P00742); test: Factor Xa Serine protease panel; settings: concentration not given here
[43] = target: Tissue-type plasminogen activator (Homo sapiens) (UniProt P00750); test: TPA Serine protease panel; settings: Compound concentration 10.0 uM
[44] = target: Neutrophil elastase (Homo sapiens) (UniProt P08246); test: Elastase Serine protease panel; settings: Compound concentration 10.0 uM
[45] = target: Muscarinic acetylcholine receptor M4 (Homo sapiens) (UniProt P08173); settings: Compound concentration 10.0 uM
[46] = target: Kallikrein-1 (Homo sapiens) (UniProt P06870); test: Kallikrein Serine protease panel; settings: Compound concentration 10.0 uM
[47] = target: Prothrombin (Homo sapiens) (UniProt P00734); test: Thrombin Serine protease panel; settings: Compound concentration 10.0 uM
Tryptase (Homo sapiens) = Tryptase (Homo sapiens) (UniProt Q9BZJ3+Q15661+Q9NRR2); test: Tryptase Serine protease panel; settings: Compound concentration 10.0 uM
[48] = target: Plasminogen (Homo sapiens) (UniProt P00747); test: Plasmin Serine protease panel; settings: Compound concentration 10.0 uM
[49] = target: Myeloblastin (Homo sapiens) (UniProt P24158); test: Proteinase 3 Serine protease panel; settings: Compound concentration 10.0 uM
[50] = target: Hepatic triacylglycerol lipase (Homo sapiens, UniProt P11150); test: Hepatic lipase Endocannabinoid related and lipase panel
Endothelial lipase = Endothelial lipase (Homo sapiens, UniProt Q9Y5X9); test: Endothelial lipase Endocannabinoid related and lipase panel
[51] = target: Lysophosphatidylserine lipase ABHD12 (Homo sapiens, UniProt Q8N2K0); test: hABHD12 Endocannabinoid related and lipase panel
Chymase (Homo sapiens) = Chymase (Homo sapiens) (UniProt P23946); test: Chymase Serine protease panel; settings: Compound concentration 10.0 uM
[52] = target: Coagulation factor VII (Homo sapiens) (UniProt P08709); test: Factor VIIa Serine protease panel; settings: Compound concentration 10.0 uM
[53] = target: Chymotrypsin (Homo sapiens) (UniProt Q99895+P17538+P40313+Q6GPI1); test: Chymotrypsin Serine protease panel; format: protein assay; settings: Compound concentration 10.0 uM
[54] = target: Cathepsin G (Homo sapiens) (UniProt P08311); test: Cathepsin G Serine protease panel; settings: Compound concentration 10.0 uM
[55] = target: Serine protease 1 (Homo sapiens) (UniProt P07477); test: Trypsin Serine protease panel; settings: Compound concentration 10.0 uM
[56] = target: Monoacylglycerol lipase ABHD6 (Homo sapiens, UniProt Q9BV23); test: hABHD6 Endocannabinoid related and lipase panel
Lipoprotein lipase = Lipoprotein lipase (Homo sapiens, UniProt P06858); test: Lipoprotein lipase Endocannabinoid related and lipase panel
Homo sapiens = organism: Homo sapiens; test: Streptokinase Serine protease panel; settings: Compound concentration 10.0 uM
D(1B) dopamine receptor [57] = target: T1, D(1B) dopamine receptor; settings: Compound concentration 10.0 uM
[58] = target: Urokinase-type plasminogen activator (Homo sapiens) (UniProt P00749); test: Urokinase Serine protease panel; settings: Compound concentration 10.0 uM

Sigma non-opioid intracellular receptor 1 (Homo sapiens), sequence (Q99720 whole entry): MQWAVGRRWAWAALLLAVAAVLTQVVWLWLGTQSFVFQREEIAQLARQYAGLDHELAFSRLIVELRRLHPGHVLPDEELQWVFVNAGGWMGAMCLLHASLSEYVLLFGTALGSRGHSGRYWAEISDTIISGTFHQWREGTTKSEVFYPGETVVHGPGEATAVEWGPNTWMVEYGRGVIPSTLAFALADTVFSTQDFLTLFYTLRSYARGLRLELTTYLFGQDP
Beta-2 adrenergic receptor (Homo sapiens), sequence (P07550 whole entry, looked up): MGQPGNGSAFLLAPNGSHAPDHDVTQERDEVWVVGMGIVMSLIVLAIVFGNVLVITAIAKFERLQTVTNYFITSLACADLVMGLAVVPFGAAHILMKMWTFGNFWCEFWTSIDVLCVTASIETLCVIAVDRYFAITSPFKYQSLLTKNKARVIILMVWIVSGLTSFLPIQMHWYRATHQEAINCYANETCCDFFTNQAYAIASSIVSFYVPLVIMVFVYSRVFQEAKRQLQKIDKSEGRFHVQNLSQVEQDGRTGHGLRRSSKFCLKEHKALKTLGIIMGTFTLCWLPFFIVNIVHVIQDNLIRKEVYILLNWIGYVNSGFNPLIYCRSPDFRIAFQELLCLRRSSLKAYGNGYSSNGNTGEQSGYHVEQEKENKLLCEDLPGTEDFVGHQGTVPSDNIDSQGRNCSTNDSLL
5-hydroxytryptamine receptor 2A (Homo sapiens), sequence (P28223 whole entry): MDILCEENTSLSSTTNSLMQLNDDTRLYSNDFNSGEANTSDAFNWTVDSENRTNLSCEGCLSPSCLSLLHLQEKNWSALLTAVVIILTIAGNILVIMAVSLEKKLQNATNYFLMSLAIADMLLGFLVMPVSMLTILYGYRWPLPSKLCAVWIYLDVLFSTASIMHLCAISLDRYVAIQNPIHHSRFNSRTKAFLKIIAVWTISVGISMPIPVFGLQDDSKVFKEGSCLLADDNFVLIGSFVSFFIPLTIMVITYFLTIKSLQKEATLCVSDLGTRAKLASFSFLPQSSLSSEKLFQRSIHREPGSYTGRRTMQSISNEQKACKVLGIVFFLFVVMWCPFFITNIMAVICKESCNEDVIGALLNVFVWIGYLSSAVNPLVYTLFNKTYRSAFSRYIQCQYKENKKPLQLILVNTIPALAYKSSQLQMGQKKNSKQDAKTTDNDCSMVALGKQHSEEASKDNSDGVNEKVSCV
Histamine H4 receptor (Homo sapiens), sequence (Q9H3N8 whole entry): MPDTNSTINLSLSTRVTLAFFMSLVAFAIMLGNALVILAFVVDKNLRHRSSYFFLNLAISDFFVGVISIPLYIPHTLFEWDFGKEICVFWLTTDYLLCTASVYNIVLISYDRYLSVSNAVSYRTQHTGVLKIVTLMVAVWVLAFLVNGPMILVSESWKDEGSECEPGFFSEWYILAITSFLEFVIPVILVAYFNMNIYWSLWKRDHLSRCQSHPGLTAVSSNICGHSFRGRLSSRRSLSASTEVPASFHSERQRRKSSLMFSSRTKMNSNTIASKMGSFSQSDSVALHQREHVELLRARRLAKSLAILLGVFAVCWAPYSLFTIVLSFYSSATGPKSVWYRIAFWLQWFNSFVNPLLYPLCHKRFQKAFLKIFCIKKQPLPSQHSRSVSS
5-hydroxytryptamine receptor 2B (Homo sapiens), sequence (P41595 whole entry): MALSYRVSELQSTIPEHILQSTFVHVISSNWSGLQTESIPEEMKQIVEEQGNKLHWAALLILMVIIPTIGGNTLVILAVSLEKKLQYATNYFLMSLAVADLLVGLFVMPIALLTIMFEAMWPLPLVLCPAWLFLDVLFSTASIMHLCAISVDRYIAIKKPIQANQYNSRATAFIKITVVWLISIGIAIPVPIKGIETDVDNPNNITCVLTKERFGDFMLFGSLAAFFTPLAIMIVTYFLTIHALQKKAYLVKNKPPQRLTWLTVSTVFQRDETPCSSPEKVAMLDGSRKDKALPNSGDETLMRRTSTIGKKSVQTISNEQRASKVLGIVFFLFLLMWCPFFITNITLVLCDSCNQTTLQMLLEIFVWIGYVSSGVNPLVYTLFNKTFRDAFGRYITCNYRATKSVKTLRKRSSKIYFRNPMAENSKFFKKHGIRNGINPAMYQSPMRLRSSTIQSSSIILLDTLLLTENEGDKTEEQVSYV
Sigma intracellular receptor 2 (Homo sapiens), sequence (Q5BJF2 whole entry): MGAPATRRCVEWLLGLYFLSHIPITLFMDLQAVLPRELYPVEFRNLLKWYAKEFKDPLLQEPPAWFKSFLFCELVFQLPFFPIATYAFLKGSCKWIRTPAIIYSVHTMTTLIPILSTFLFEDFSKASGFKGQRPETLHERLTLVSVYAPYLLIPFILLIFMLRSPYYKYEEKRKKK
Alpha-1A adrenergic receptor (Homo sapiens), sequence (P35348 whole entry): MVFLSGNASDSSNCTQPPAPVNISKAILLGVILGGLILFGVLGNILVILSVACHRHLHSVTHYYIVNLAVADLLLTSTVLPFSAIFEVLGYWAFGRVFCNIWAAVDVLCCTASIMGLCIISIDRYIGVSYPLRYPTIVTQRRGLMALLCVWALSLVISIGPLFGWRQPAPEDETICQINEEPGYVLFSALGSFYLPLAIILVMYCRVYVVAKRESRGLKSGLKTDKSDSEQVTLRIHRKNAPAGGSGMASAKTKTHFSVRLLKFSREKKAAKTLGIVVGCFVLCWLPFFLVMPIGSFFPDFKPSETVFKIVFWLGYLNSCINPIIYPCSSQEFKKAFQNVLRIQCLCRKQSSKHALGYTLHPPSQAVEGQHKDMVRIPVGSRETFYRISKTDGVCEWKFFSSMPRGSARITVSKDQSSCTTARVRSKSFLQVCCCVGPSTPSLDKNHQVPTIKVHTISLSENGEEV
Mu-type opioid receptor (Homo sapiens), sequence (P35372 whole entry): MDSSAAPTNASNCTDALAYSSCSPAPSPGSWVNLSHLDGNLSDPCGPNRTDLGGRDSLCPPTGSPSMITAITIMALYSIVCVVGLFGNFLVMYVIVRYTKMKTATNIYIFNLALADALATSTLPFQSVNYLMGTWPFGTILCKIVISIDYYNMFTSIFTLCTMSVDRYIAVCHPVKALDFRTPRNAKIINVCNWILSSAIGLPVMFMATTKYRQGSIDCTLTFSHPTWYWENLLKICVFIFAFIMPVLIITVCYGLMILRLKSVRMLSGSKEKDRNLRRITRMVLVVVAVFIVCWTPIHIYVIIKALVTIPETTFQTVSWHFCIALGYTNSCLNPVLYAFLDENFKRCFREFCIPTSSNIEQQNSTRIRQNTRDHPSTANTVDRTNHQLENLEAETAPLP
Alpha-1B adrenergic receptor (Homo sapiens), sequence (P35368 whole entry): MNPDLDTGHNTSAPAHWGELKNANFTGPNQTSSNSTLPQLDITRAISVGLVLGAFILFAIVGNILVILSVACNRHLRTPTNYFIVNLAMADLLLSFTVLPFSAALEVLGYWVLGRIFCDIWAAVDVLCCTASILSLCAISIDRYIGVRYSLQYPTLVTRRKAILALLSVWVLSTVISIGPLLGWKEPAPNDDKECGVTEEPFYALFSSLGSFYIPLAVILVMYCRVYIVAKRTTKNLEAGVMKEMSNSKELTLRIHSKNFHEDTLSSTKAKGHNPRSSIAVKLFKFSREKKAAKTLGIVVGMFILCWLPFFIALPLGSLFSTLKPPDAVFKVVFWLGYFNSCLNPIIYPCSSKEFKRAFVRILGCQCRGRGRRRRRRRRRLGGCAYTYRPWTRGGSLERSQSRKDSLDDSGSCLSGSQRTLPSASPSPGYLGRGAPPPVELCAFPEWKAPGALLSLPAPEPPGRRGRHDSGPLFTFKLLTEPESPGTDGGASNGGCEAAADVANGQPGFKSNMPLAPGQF
Sodium-dependent serotonin transporter (Homo sapiens), sequence (P31645 whole entry, looked up): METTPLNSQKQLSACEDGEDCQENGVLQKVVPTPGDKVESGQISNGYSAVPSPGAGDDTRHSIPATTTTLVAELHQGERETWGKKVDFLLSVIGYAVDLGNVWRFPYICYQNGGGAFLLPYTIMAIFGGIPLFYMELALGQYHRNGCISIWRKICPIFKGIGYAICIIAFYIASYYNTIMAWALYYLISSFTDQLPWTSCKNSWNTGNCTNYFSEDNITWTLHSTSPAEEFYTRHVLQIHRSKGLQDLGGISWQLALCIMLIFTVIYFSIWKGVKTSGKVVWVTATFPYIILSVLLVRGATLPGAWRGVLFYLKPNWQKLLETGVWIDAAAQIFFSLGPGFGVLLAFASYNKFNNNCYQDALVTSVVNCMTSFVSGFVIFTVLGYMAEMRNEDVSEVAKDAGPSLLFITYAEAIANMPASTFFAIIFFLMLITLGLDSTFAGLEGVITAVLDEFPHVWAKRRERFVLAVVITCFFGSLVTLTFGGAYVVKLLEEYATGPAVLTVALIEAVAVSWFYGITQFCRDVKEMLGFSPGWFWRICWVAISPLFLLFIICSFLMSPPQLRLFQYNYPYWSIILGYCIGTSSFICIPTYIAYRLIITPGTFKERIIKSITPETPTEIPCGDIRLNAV
Alpha-2A adrenergic receptor (Homo sapiens), sequence (P08913 whole entry): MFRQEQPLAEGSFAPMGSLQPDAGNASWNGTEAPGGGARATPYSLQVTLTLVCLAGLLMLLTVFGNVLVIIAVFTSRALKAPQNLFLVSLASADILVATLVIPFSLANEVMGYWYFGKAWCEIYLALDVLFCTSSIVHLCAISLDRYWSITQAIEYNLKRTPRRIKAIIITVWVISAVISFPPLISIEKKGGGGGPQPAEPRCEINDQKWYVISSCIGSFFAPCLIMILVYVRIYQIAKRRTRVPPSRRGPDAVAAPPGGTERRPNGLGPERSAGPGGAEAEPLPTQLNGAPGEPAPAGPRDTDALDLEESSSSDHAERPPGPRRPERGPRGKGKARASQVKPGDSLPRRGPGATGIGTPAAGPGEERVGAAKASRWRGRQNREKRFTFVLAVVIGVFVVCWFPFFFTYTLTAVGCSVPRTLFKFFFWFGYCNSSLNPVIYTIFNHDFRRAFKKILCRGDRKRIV
Neutrophil elastase (Homo sapiens), sequence (P08246 whole entry): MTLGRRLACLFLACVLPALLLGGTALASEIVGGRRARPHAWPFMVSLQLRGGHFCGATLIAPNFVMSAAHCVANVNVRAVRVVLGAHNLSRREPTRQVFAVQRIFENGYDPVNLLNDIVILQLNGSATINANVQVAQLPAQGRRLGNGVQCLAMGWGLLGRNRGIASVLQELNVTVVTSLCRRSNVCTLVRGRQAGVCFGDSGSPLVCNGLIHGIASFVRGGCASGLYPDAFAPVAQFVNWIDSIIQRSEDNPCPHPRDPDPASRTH

SMILES: Cc1cc(C(=O)N2CCN(C3CN(C(=O)c4ccc(-c5ccccc5)cc4)C3)CC2)no1
- inhibition [1]: 8.86%
- inhibition [2]: -6.9%
- inhibition [3]: 43.6%
- inhibition [4]: 23.6%
- inhibition [5]: 22.7%
- inhibition [6]: -6.07%
- inhibition [7]: 16.6%
- inhibition [8]: 49.1%
- Ki (D(1B) dopamine receptor [9]): > 10 µM
- pKi (D(1B) dopamine receptor [9]): < 5
- inhibition [10]: 37.1%
- IC50 [11]: > 10 µM (not active)
- inhibition [12]: 10.4%
- inhibition [13]: 0.18%
- inhibition [14]: -7.89%
- inhibition [15]: 24.2%
- inhibition [16]: 11.5%
- inhibition [17]: -7.67%
- inhibition [18]: 36.5%
- inhibition [19]: 17%
- inhibition [20]: 41.2%
- inhibition [21]: 8.15%
- inhibition [22]: 32.4%
- inhibition [23]: 18.1%
- inhibition (Rattus norvegicus): 38%
- inhibition [24]: 2.58%
- inhibition [25]: 11.1%
- inhibition [26]: 23.3%
- inhibition [27]: 9.93%
- inhibition [28]: 23%
- inhibition [29]: -4.46%
- inhibition [30]: 29.9%
- inhibition [31]: 22.3%
- inhibition [32]: 35%
- inhibition [33]: 16%
- inhibition [34]: 8.77%
- inhibition [35]: -3.68%
- inhibition [36]: 39%
- inhibition [37]: 43.5%
- inhibition [38]: 12.4%
- inhibition [39]: 3.51%
- inhibition [40]: 48.9%

SMILES: O=C(c1ccc2c(ccn2-c2ccc(F)cc2)c1)N1CC(N2CCN(C(=O)c3nccs3)CC2)C1
- inhibition [1]: 8.47%
- inhibition [2]: -2.02%
- inhibition [3]: 27.6%
- inhibition [4]: 0.7%
- inhibition [5]: 18.2%
- Ki [41]: > 10 µM
- pKi [41]: < 5
- inhibition [6]: -2.68%
- inhibition [42]: 0%
- inhibition [43]: 6%
- inhibition [7]: 4.03%
- inhibition [8]: 14.5%
- inhibition [10]: 27.6%
- inhibition [12]: 9.02%
- inhibition [44]: 4%
- inhibition [13]: -2.21%
- inhibition [45]: 1.62%
- inhibition [46]: 4%
- inhibition [14]: -8.52%
- inhibition [15]: 11.1%
- inhibition [16]: 17.7%
- inhibition [17]: -6.82%
- inhibition [47]: -1%
- inhibition [19]: -9.24%
- inhibition [20]: 19.4%
- inhibition [21]: -9.71%
- inhibition (Tryptase (Homo sapiens)): 2%
- inhibition [22]: 2.62%
- inhibition [23]: 11.6%
- inhibition (Rattus norvegicus): -0.52%
- inhibition [25]: 1.99%
- inhibition [26]: 14.2%
- inhibition [48]: 4%
- inhibition [49]: 7%
- inhibition [27]: 19.3%
- IC50 [50]: > 30 µM
- inhibition [28]: 9.63%
- IC50 (Endothelial lipase): > 30 µM
- inhibition [29]: -7.3%
- IC50 [51]: > 10 µM
- inhibition (Chymase (Homo sapiens)): 11%
- inhibition [30]: 4.93%
- inhibition [31]: 8.15%
- inhibition [52]: -5%
- inhibition [32]: 6.33%
- inhibition [33]: 0.01%
- inhibition [34]: 7.06%
- inhibition [53]: -3%
- inhibition [54]: 13%
- inhibition [35]: -3.14%
- inhibition [36]: 9.83%
- inhibition [37]: 25.2%
- inhibition [38]: 12.8%
- inhibition [55]: -10%
- IC50 [56]: > 10 µM
- inhibition [39]: 8.01%
- inhibition [40]: 54.7%
- IC50 (Lipoprotein lipase): > 30 µM
- inhibition (Homo sapiens): 1%
- inhibition (D(1B) dopamine receptor [57]): -0.29%
- inhibition [58]: 2%

Source: ChEMBL document CHEMBL5303769, “Data for DCP probe JNJ-42226314” (2023)
